Experimental data as given in patent US20130225830A1, “POLYMORPHS OF FEBUXOSTAT” (MAPI PHARMA LIMITED, priority 2010, published 2013).
“And” between values parts separate entries of the source, which are not always exact repeats. Identical values can stand only once.

Experiments:
Assay type in all cases: physicochemical
[1] = Physical stability measurements (XRPD, DSC, TGA)
Procedure: Testing conditions: 40° C., 60° C., 40° C./RH 75%, 60° C./RH 75%, light
Testing procedure: About 50 mg of a febuxostat form were weighed in glass vial for testing the physical stability and were stored under different conditions for 1 week and 2 weeks, separately. The same febuxostat form was stored at −20° C. as control. XRPD, DSC and TGA of each of the febuxostat forms were measured at the end of the first and second weeks.

[2] = Aqueous solubility measurements; conditions: for pH: final pH of saturated solution
Procedure: Testing media: water, pH 1.2, 4.5, 6.8, 7.4 USP buffers, 0.01 N HCl, 0.1 N HCl, SGF, FaSSIF, FeSSIF.
The various testing media were prepared as follows:
pH 1.2 (USP): 50 mL of 0.2 M potassium chloride solution were placed in a 200 mL volumetric flask to which 85.0 mL of 0.2M hydrochloric acid solution were added followed by the addition of water to obtain the required volume.
pH 4.5 (USP): 50 mL of 0.2 M potassium biphthalate solution were placed in a 200 mL volumetric flask to which 8.8 mL of 0.2 M sodium hydroxide solution were added followed by the addition of water to obtain the required volume.
pH 6.8 (USP): 50 mL of 0.2 M monobasic potassium phosphate solution were placed in a 200 mL volumetric flask to which 22.4 mL of 0.2 M sodium hydroxide solution were added followed by the addition of water to obtain the required volume.
pH 7.4 (USP): 50 mL of 0.2 M monobasic potassium phosphate solution were placed in a 200 mL volumetric flask to which 39.1 mL of 0.2 M sodium hydroxide solution were added followed by the addition of water to obtain the required volume.
Simulated gastric fluid (SGF): 0.01 N HCl, 0.05% sodium lauryl sulfate, and 0.2% NaCl.
Fasted state simulated intestinal fluid (FaSSIF): 29 mM NaH2PO4, 3 mM Na taurocholate, 0.75 mM lecithin, 103 mM NaCl, and NaOH to obtain pH 6.5.
Fed state simulated intestinal fluid (FeSSIF): 144 mM acetic acid, 15 mM Na taurocholate, 3.75 mM lecithin, 204 mM NaCl, and NaOH to obtain pH 5.0.
Testing procedure: The tested febuxostat form was placed in each of the different media and was kept shaken for 24 hours at 25° C. Then, the saturated solution was filtered. The concentration of the febuxostat form in filtrate was determined by HPLC. The final pH was then tested. The test was conducted in duplication.

[3] = Solid stability measurements (appearance, assay and total related substances by HPLC); conditions: for Remaining (%): one value for both samples, vs −20° C. control; for Appearance / TRS (%): samples 1 and 2
Procedure: The detailed chromatographic conditions are listed hereinbelow. The typical retention time of febuxostat main peak is 8.2 min. [table] Testing conditions: 40° C., 60° C., 40° C./RH 75%, 60° C./RH 75%, light Testing procedure: About 3 mg of a febuxostat form were weighed in a glass vial and stored under the different conditions for 1 week and 2 weeks, separately. The same febuxostat form was stored at −20° C. as control. The test was conducted in duplication. The physical appearance, assay and total related substances of each of the febuxostat forms were measured by HPLC at the end of the first and second weeks.

[4] = media 0.01N HCl, 24 hours at 25° C.
[5] = media 0.1N HCl, 24 hours at 25° C.
[6] = media FaSSIF, 24 hours at 25° C.
[7] = media FeSSIF, 24 hours at 25° C.
[8] = media pH 1.2 (USP), 24 hours at 25° C.
[9] = media pH 4.5 (USP), 24 hours at 25° C.
[10] = media pH 6.8 (USP), 24 hours at 25° C.
[11] = media pH 7.4 (USP), 24 hours at 25° C.
[12] = media water, 24 hours at 25° C.

**Q.** For `Cc1nc(-c2ccc(OCC(C)C)c(C#N)c2)sc1C(=O)O` [Form XI, 2-(3-cyano-4-isobutoxyphenyl)-4-methyl-5-thiazolecarboxylic acid], which “physical stability (XRPD, DSC, TGA)” value ([1]; 40° C., 60° C. and light at the end of the first and second week) is on record?
**A.** stable

**Q.** What about the “physical stability (XRPD, DSC, TGA), form conversion” value (from here on “physical stability … form conversion”) ([1]; 40° C./75% RH at the end of the first week) of the same compound?
**A.** completely converted to form G

**Q.** And the “physical stability … form conversion” value ([1]; 40° C./75% RH at the end of the second week)?
**A.** completely converted to form G

**Q.** And the “physical stability … form conversion” value ([1]; 60° C./75% RH at the end of the first and second weeks)?
**A.** completely converted to form G

**Q.** What about the pH [2, 4] of the same compound?
**A.** 1.981

**Q.** And the pH [2, 5]?
**A.** 0.967

**Q.** And the pH [2, 6]?
**A.** 6.336

**Q.** And the pH [2, 7]?
**A.** 4.998

**Q.** What about the pH ([2]; media SGF, 24 hours at 25° C.) of the same compound?
**A.** 2.114

**Q.** What about the pH [2, 8] of the same compound?
**A.** 1.132

**Q.** What about the pH [2, 9] of the same compound?
**A.** 4.479

**Q.** And the pH [2, 10]?
**A.** 6.684

**Q.** And the pH [2, 11]?
**A.** 6.905

**Q.** And the pH ([2]; media water, shaken 24 hours at 25° C.)?
**A.** 8.106

**Q.** What about the Visual solubility [2, 4] of the same compound?
**A.** few particles

**Q.** And the Visual solubility [2, 5]?
**A.** few particles

**Q.** What about the “HPLC solubility” value [2, 6] of the same compound?
**A.** 521.19 µg/mL

**Q.** What about the Visual solubility [2, 6] of the same compound?
**A.** Turbid + few particles

**Q.** And the “HPLC solubility” value [2, 7]?
**A.** 149.95 µg/mL

**Q.** What about the Visual solubility [2, 7] of the same compound?
**A.** Turbid + few particles

**Q.** And the Visual solubility ([2]; media SGF, 24 hours at 25° C.)?
**A.** few particles

**Q.** What about the Visual solubility [2, 8] of the same compound?
**A.** few particles

**Q.** And the “HPLC solubility” value [2, 9]?
**A.** 0.49 µg/mL

**Q.** And the Visual solubility [2, 9]?
**A.** few particles

**Q.** And the “HPLC solubility” value [2, 10]?
**A.** 931.90 µg/mL

**Q.** What about the Visual solubility [2, 10] of the same compound?
**A.** Turbid + few particles

**Q.** And the “HPLC solubility” value [2, 11]?
**A.** 4464.94 µg/mL

**Q.** And the Visual solubility [2, 11]?
**A.** Slightly turbid + few

**Q.** And the “HPLC solubility” value [2, 12]?
**A.** 33.82 µg/mL

**Q.** What about the Visual solubility [2, 12] of the same compound?
**A.** Turbid + few particles

**Q.** What about the “aqueous solubility (in words)” value ([2]; pH1.2 USP buffer, 0.01N HCl, 0.1N HCl and SGF) of the same compound?
**A.** poor solubility

**Q.** And the “aqueous solubility (in words)” value ([2]; pH6.8 USP buffer, pH7.4 USP buffer, FaSSIF, FeSSIF)?
**A.** good solubility

**Q.** What about the “change of assay and TRS (in words)” value ([3]; 40° C., 60° C., 40° C./75% RH, 60° C./75% RH at end of the first and second weeks) of the same compound?
**A.** no significant change

**Q.** What about the “Remaining (%)” value ([3]; 40° C., 7 d) of the same compound?
**A.** 99.02%

**Q.** What about the Appearance ([3]; 40° C., 7 d) of the same compound?
**A.** No change

**Q.** And the “TRS (%)” value ([3]; 40° C., 7 d)?
**A.** 1.25% and 1.24%

**Q.** What about the “Remaining (%)” value ([3]; 40° C., 14 d) of the same compound?
**A.** 100.12%

**Q.** What about the Appearance ([3]; 40° C., 14 d) of the same compound?
**A.** No change

**Q.** What about the “TRS (%)” value ([3]; 40° C., 14 d) of the same compound?
**A.** 1.26% and 1.27%

**Q.** And the “Remaining (%)” value ([3]; 40° C./75% RH, 7 d)?
**A.** 99.02%

**Q.** And the Appearance ([3]; 40° C./75% RH, 7 d)?
**A.** No change

**Q.** What about the “TRS (%)” value ([3]; 40° C./75% RH, 7 d) of the same compound?
**A.** 1.28%

**Q.** And the “Remaining (%)” value ([3]; 40° C./75% RH, 14 d)?
**A.** 100.75%

**Q.** What about the Appearance ([3]; 40° C./75% RH, 14 d) of the same compound?
**A.** No change

**Q.** What about the “TRS (%)” value ([3]; 40° C./75% RH, 14 d) of the same compound?
**A.** 1.30% and 1.29%

**Q.** What about the “Remaining (%)” value ([3]; 60° C., 7 d) of the same compound?
**A.** 98.56%

**Q.** And the Appearance ([3]; 60° C., 7 d)?
**A.** No change

**Q.** And the “TRS (%)” value ([3]; 60° C., 7 d)?
**A.** 1.31% and 1.30%

**Q.** And the “Remaining (%)” value ([3]; 60° C., 14 d)?
**A.** 99.72%

**Q.** What about the Appearance ([3]; 60° C., 14 d) of the same compound?
**A.** No change

**Q.** What about the “TRS (%)” value ([3]; 60° C., 14 d) of the same compound?
**A.** 1.33%

**Q.** And the “Remaining (%)” value ([3]; 60° C./75% RH, 7 d)?
**A.** 98.44%

**Q.** What about the Appearance ([3]; 60° C./75% RH, 7 d) of the same compound?
**A.** No change

**Q.** And the “TRS (%)” value ([3]; 60° C./75% RH, 7 d)?
**A.** 1.33% and 1.31%

**Q.** What about the “Remaining (%)” value ([3]; 60° C./75% RH, 14 d) of the same compound?
**A.** 99.82%

**Q.** And the Appearance ([3]; 60° C./75% RH, 14 d)?
**A.** No change

**Q.** And the “TRS (%)” value ([3]; 60° C./75% RH, 14 d)?
**A.** 1.35% and 1.36%

**Q.** And the “Remaining (%)” value ([3]; Light, 7 d)?
**A.** 96.26%

**Q.** And the Appearance ([3]; Light, 7 d)?
**A.** Light yellow

**Q.** And the “TRS (%)” value ([3]; Light, 7 d)?
**A.** 1.86% and 2.09%

**Q.** What about the “Remaining (%)” value ([3]; Light, 14 d) of the same compound?
**A.** 95.06%

**Q.** And the Appearance ([3]; Light, 14 d)?
**A.** Light yellow

**Q.** What about the “TRS (%)” value ([3]; Light, 14 d) of the same compound?
**A.** 4.88% and 4.32%

**Q.** And the Appearance ([3]; −20° C. (control), 7 d)?
**A.** No change

**Q.** And the “TRS (%)” value ([3]; −20° C. (control), 7 d)?
**A.** 1.22%

**Q.** And the Appearance ([3]; −20° C. (control), 14 d)?
**A.** No change

**Q.** And the “TRS (%)” value ([3]; −20° C. (control), 14 d)?
**A.** 1.23%
